Results from US12382888B2, “Compositions and methods for modulating immunity in plants” (Boyce Thompson Institute for Plant Research, Inc., priority 2013, dated 2025).
“Also recorded” adds a separate entry of the source.

Experiments:
PR-1, FRK1, PHI1, WRKY53 = experiment: Defense gene expression in Arabidopsis roots (qRT-PCR)
Experimental: FIG. 18C: Eight days old Arabidopsis seedlings were treated by root bathing using the indicated concentrations of ascr #18. Root samples were collected 6 hours after treatment for RNA extraction. Transcript levels of PHI1, FRK1 and WRKY53 were determined by qRT-PCR and normalized to endogenous UFP (AT4G01000) . *P≤0.05; **P≤0.005; ***P≤0.0005, two-tailed 1-test.
Roots of Arabidopsis seedlings were treated with water (CK) or with various ascr #18 concentrations for 48 hours. Roots were then collected and used to extract RNA for qRT-PCR analysis.
For the RNA analyses in roots, Arabidopsis roots were collected from 20-30 seedlings from each treatment and mRNA was isolated using the Dynabeads mRNA DIRECT Kit (Life Technologies). DNA contamination was removed by treatment with DNase I (Life Technologies). First-strand cDNA was synthesized from 50 ng of mRNA using ProtoScript II Reverse Transcriptase (NEB). […] All assays consisted of three technical replicates for each RNA sample. Data was analyzed using the iCycler iQ Real-Time PCR Detection System Software version 3.0a (Bio-Rad). The Arabidopsis UFP gene (AT4G01000) was used as an endogenous reference gene. PCR was started with an activation and DNA denaturation step (95° C. for 3 minutes), then followed by 40 cycles of 95° C. for 20 seconds and 60° C. for 40 seconds.

PR-1 [1] = experiment: PR-1 gene expression in barley leaves (qRT-PCR)
Experimental: Barley leaves were sprayed with the indicated concentrations of ascr #18 48 hours before inoculation with Blumeria graminis f. sp. hordei (Bgh). […] Leaves of barley plants were sprayed with water or ascr #18 (1 μM). Plants were inoculated with Bgh 48 hours post treatment. Leaves were collected at 16 hpi and used to extract RNA for qRT-PCR analysis. Data are average±SD (n=3, where n denotes the number of independent samples). (*P≤0.05; **P≤0.005; ***P≤0.0005, two-tailed t-test).
Leaves of barley plants were sprayed with various concentrations of ascr #18 or water (mock) for 48 hours. 48 hours post treatment plants were inoculated with Bgh. Leaves were collected at 16 hpi and used to extract RNA for qRT-PCR analysis.
For barley analyses, RNA extraction from infected barley leaves was performed with TRIzol (Invitrogen) following the manufacturer's instructions. Freshly extracted mRNA was used for cDNA synthesis using QuantiTect Reverse-Transcription kit (Qiagen). cDNA was stored at −20° C. For qRT-PCR, 50 ng of cDNA was used as template in the Applied Biosystems 7500 FAST real time PCR system. Amplifications were performed in 7.5 μL of SYBER green JumpStart Taq ReadyMix (Sigma-Aldrich) with 0.5 pmol oligonucleotides. […] Ubiquitin was used as an endogenous reference gene.

M. incognita = experiment: Arabidopsis root knot nematode infection assay; assay type: in vivo, Meloidogyne incognita
Aspergillus fumigatus = experiment: Disk-diffusion assay, Aspergillus fumigatus; settings: up to 10 mM
Pst DC3000 = experiment: Resistance of tomato to Pst DC3000 (bacterial growth); assay type: in vivo, Pseudomonas syringae pv. tomato
[2] = system: Pseudomonas syringae pv. tabaci; experiment: Resistance of tobacco to Pseudomonas syringae pv. tabaci (bacterial growth); settings: for resistance to P. syringae pv tabaci: 2 dpi
B. subtilis = experiment: Disk-diffusion assay, B. subtilis; settings: up to 10 mM
PR-1 [3] = experiment: PR-1 expression in Arabidopsis leaves (semi-quantitative PCR / qRT-PCR)
Heterodera schachtii = experiment: Arabidopsis cyst nematode infection assay; assay type: in vivo
tomato suspension cells = assay type: cell-based
MPK3 and MPK6 = experiment: MAPK activation phosphorylation in Arabidopsis leaves (immunoblot); assay type: in vivo, Arabidopsis thaliana; settings: leaf infiltration 1 μM; 10 minutes
PR-1 [4] = experiment: PR-1 protein/transcript induction in tobacco leaves (immunoblot, RT-PCR)
Experimental: Four-weeks old tobacco plants were syringe-infiltrated with buffer, SA, or a mixture of SA (50 μM or 500 μM) and decreasing concentration of ascr #18 (10, 0.3, and 0.01 μM). PR-1 was assayed 48 hours after treatment by immunoblot using anti-PR-1 antibody.
PR-1 expression was analyzed 48 hp SA treatment.
To determine whether ascr #18 affects levels of the prototypic SA-responsive PR-1 gene/protein, tobacco plants were treated with varying concentrations of ascr #18 in the presence or absence of SA (FIG. 2).

[5] = system: GRAS4, GST, β-1,3-glucanase, AOS2; experiment: Defense response genes in tomato leaves after root pretreatment (qRT-PCR); assay type: in vivo, tomato (Solanum lycopersicum); settings: root treatment 10 nM
[6] = system: Pseudomonas syringae pv. tomato DC3000 (Pst); experiment: Resistance of Arabidopsis to Pseudomonas syringae pv. tomato DC3000 (bacterial growth); assay type: in vivo; settings: for protection against Pst DC3000: compared with 1 μM
E. coli = experiment: Disk-diffusion assay, E. coli; settings: up to 10 mM
[7] = system: FRK1, PHI1, PR-4, AOS, GSTF6, LOX2; experiment: Defense gene markers in Arabidopsis leaves after root pretreatment (qRT-PCR); assay type: in vivo, Arabidopsis thaliana; settings: root treatment 1 μM
PDF1.2 = PDF1.2 expression in Arabidopsis leaves (semi-quantitative PCR / qRT-PCR)
[8] = system: EBF1, ERS1, ERS2, ERF1, ACO1, SAUR34, DRM2, AUX1, IAA6 and ARF19; experiment: Ethylene- and auxin-responsive gene markers in Arabidopsis leaves after root pretreatment (qRT-PCR); assay type: in vivo, Arabidopsis thaliana; settings: root treatment 1 μM, 24 hpt
[9] = system: Blumeria graminis f. sp. hordei (Bgh); experiment: Resistance of barley to Blumeria graminis f. sp. hordei (pustule count); settings: barley cv. Golden Promise; leaves sprayed 0.01 μM to 1 μM 48 hours before inoculation; 7 dpi
Experimental: Barley leaves were sprayed with the indicated concentrations of ascr #18 48 hours before inoculation with Blumeria graminis f. sp. hordei (Bgh). Photograph of barley leave segments infected with Bgh were taken at 7 days post inoculation (dpi). FIG. 15C: Provides the number of Bgh pustules counted at 7 dpi. […] Leaves of barley plants were sprayed with water or ascr #18 (1 μM). Plants were inoculated with Bgh 48 hours post treatment. […] Data are average±SD (n=3, where n denotes the number of independent samples). (*P≤0.05; **P≤0.005; ***P≤0.0005, two-tailed t-test).
For barley cv. Golden Promise, 7-days old seedlings were pretreated by spraying with different concentrations of ascr #18. Inoculation with Bgh was done 48 hours post treatment using a detached leaflet assay. Briefly 10 leaves from 5 different plants per treatment were cut and transferred to Petri dishes containing 1% water agar. Leaves were then inoculated with Bgh. Water was used as mock control. Pustules were counted 7 dpi.

Botrytis cinerea = experiment: Resistance of tomato to Botrytis cinerea B05.01 (detached leaflet assay); assay type: in vivo; settings: tomato cv. M82; root immersion 0.01 μM 48 hours before
[10] = root treatment of seedlings, various concentrations, 48 hours
[11] = root pretreatment 10 nM, 48 hours
[12] = leaf infiltration 0.01 μM or 0.3 μM, 24 hpt, qRT-PCR
[13] = leaf pretreatment by syringe infiltration, 0.01, 0.3, and 10 μM

CC1O[C@@H](O[C@@H](C)CCCCCCCCC(=O)O)C(O)C[C@H]1O (stereo in doubt) [ascr #18, (10R)-(3′R,5′R-dihydroxy-6′S-methyl-(2H)-tetrahydropyran-2-yloxy)-undecanoic Acid]
root expression of FRK1 (PR-1, FRK1, PHI1, WRKY53; 10 or 50 nM, within 6 hours): induced | root expression of PHI1 (PR-1, FRK1, PHI1, WRKY53; 10 or 50 nM, within 6 hours): induced | root expression of WRKY53 (PR-1, FRK1, PHI1, WRKY53; 10 or 50 nM, within 6 hours): induced | FRK1 expression in roots (PR-1, FRK1, PHI1, WRKY53; [10]): induces; also recorded: induction | PR-1 expression in roots (PR-1, FRK1, PHI1, WRKY53; [10]): induces; also recorded: induction | PR-1 gene expression, with Bgh inoculation (PR-1 [1]; 1 μM ascr #18 plus inoculation with Bgh, 16 hpi): further enhanced; also recorded: even higher levels of PR-1 expression | PR-1 gene expression (PR-1 [1]; barley leaves sprayed, 1 μM, 48 hours): induces PR-1 gene expression; also recorded: induced PR-1 transcript accumulation; also recorded: induction of PR-1 gene | concentration providing best protection against root infection (M. incognita; Arabidopsis, root knot nematodes): 10 nM | infection with root knot nematode M. incognita (M. incognita; [11]): significantly reduced infection | growth inhibition (Aspergillus fumigatus): no growth inhibition | growth of Pst DC3000 in tomato leaves (Pst DC3000; higher concentrations than 10 nM): less effective | growth of Pst DC3000 in tomato leaves (Pst DC3000; tomato cv. M82, root treatment 10 nM 48 hours before, 4 dpi): significantly reduced the growth | resistance to P. syringae pv tabaci, SA added ([2]; SA 50 μM infiltrated 24 hours after ascr #18 0.01 μM pretreatment): no further enhancement of resistance | resistance to virulent P.t. (bacterial growth) ([2]; ascr #18 0.01 μM alone, leaves (infiltration) or roots (immersion) 24 hours before inoculation, 48 hpi): sufficient to enhance resistance; also recorded: enhanced resistance | virulent P.t. growth, both compounds ([2]; ascr #18 and SA provided simultaneously, vs single treatment): no greater reduction | resistance to P. syringae pv tabaci ([2]; leaf syringe infiltration 0.01 μM, inoculation 48 hours after): enhanced resistance | resistance to P. syringae pv tabaci ([2]; root immersion, ascr #18 0.01 μM or 0.03 μM): enhances resistance | resistance to P. syringae pv tabaci ([2]; spray 0.01 μM 48 hours before inoculation): enhances resistance | resistance to P. syringae pv tabaci, combination ([2]; spray ascr #18 0.01 μM combined with SA 50 μM): did not further increase resistance | growth inhibition (B. subtilis): no growth inhibition | PR-1 expression (PR-1 [3]; ascr #18 (0.01 or 0.3 μM) alone, test leaves or roots treated, 24 hours): induces PR-1 expression even in the absence of SA; also recorded: altered | SA-mediated PR-1 expression (PR-1 [3]; ascr #18 co-applied with SA (50 μM) to leaves or applied through roots): suppresses SA-mediated PR-1 expression | PR-1 transcripts (PR-1 [3]; [12]): elevated; also recorded: Induction | PR-1 expression in Arabidopsis (PR-1 [3]; [13]): + | concentration providing best protection against root infection (Heterodera schachtii; Arabidopsis, cyst nematodes): 10 nM | resistance to H. schachtii (females counted) (Heterodera schachtii; media containing 50 nM or 600 nM, 19 dpi): enhances resistance | infection with cyst nematode H. schachtii (Heterodera schachtii; [11]): significantly reduced infection | media alkalinization (pH of culture medium) (tomato suspension cells): induced media alkalinization in a dose-dependent manner | phosphorylation of MPK3 and MPK6 (MPK3 and MPK6): transient increase in the phosphorylation of both MAPKs; also recorded: Activation | PR-1 accumulation in presence of SA (PR-1 [4]; ascr #18 0.01 or 0.3 μM with SA 500 μM or 50 μM, leaf infiltration, vs SA only): enhanced PR-1 accumulation | PR-1 protein accumulation (PR-1 [4]; tobacco leaves, ascr #18 alone 0.01, 0.3, or 10 μM, syringe infiltration, 48 hours): did not induce PR-1 protein accumulation | β-1,3-glucanase transcript level in leaves ([5]; 24 hpt): enhanced levels | AOS2 transcript level in leaves ([5]; 48 hpt): significantly elevated | GRAS4 transcript level in leaves ([5]; 48 hpt): significantly elevated | GST transcript level in leaves ([5]; 48 hpt): significantly elevated | β-1,3-glucanase transcript level in leaves ([5]; 48 hpt): significantly elevated | resistance to Pst, co-treatment ([6]; ascr #18 0.3 μM with SA 50 μM, leaf infiltration): further enhanced resistance; also recorded: strongly enhanced resistance | concentration for best/maximal protection against leaf infection (Pst; bacterial and viral pathogens) ([6]; in vivo): 1 µM | resistance to virulent Pst DC3000 (bacterial growth) ([6]; leaf syringe infiltration 0.3 μM 24 hours prior to inoculation, 3 dpi): enhanced resistance; also recorded: low level of protection | resistance to P. syringae pv tomato ([6]; root immersion 0.3 μM, 1 μM, or 5 μM 24 hours prior to inoculation): enhanced resistance | protection against Pst DC3000 ([6]; root immersion 0.3 μM): less effective | protection against Pst DC3000 (bacterial growth) ([6]; root immersion 1 μM, 24 hours before inoculation, 3 dpi): strong protection; also recorded: reduced growth | protection against Pst DC3000 ([6]; root immersion 5 μM): less effective | growth inhibition (E. coli): no growth inhibition | FRK1 expression in leaves ([7]; 6 hpt): induced | AOS expression in leaves ([7]; 24 hpt): increased expression | GSTF6 expression in leaves ([7]; 24 hpt): increased expression | LOX2 expression in leaves ([7]; 24 hpt): increased expression | PHI1 expression in leaves ([7]; 24 hpt): induced | PR-4 expression in leaves ([7]; 24 hpt): increased expression | PDF1.2 expression, systemic (PDF1.2; a subset of leaves treated): induced PDF1.2 expression in untreated, as well as treated, leaves | PDF1.2 expression (PDF1.2; ascr #18 (0.01 or 0.3 μM), test leaves or roots treated, 24 hours): induces expression of the prototypic JA-responsive PDF1.2 gene; also recorded: altered | PDF1.2 transcripts (PDF1.2; [12]): elevated; also recorded: Induction | PDF1.2 expression in Arabidopsis (PDF1.2; [13]): + | auxin or ET-regulated defense signaling ([8]; 10 genes): does not strongly affect auxin or ET-regulated defense signaling | SAUR34 expression ([8]; only one of 10 tested genes): enhanced | resistance to Bgh (number of pustules) [9]: enhances basal resistance; also recorded: increased resistance to Bgh; also recorded: enhanced resistance | resistance to B. cinerea (lesion size 3 dpi) (Botrytis cinerea): did not have a significant effect
